The target of test [1] is Diphosphomevalonate decarboxylase (Streptococcus pneumoniae serotype 2 (strain D39 / NCTC 7466), UniProt Q9FD53). In words: diphosphomevalonate decarboxylase inhibitor confirmation – biochemical, cuvette format, coupled NADH fluorescence (AID 1028). It is filed as functional.
Test [2] concerns the target Photoreceptor-specific nuclear receptor (Homo sapiens, UniProt Q9Y5X4). In words: ligands suppressing NR2E3 nuclear receptor activity – biochemical, TR-FRET, dose response (AID 463256). It is filed as functional.
For test [3], the target named is Peroxisome proliferator-activated receptor gamma/Nuclear receptor corepressor 2 (Homo sapiens, UniProt P37231+Q9Y618). The test is described as follows: Counterscreen for NR2E3 inverse agonists: TR-FRET-based biochemical high throughput dose response assay to identify inverse agonists of the interaction between peroxisome proliferator-activated receptor gamma (PPARg) and nuclear receptor co-repressor 2 (NCOR2). It is filed as functional.

Test [4] addresses E3 ubiquitin-protein ligase Mdm2 (Homo sapiens, UniProt Q00987). In words: MDM2-luc reporter signal enhancers, multi-concentration potency testing, MDM2 ubiquitin-protein ligase inhibitor program, whole-cell format, luminescence detection, 384-well microplate (AID 1394).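 Note: MDM2 E3 inhibitors raise luminescence so EC50 is for signal enhancement.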 It counts as functional.
For test [5], the target named is Dual specificity protein phosphatase 6 (Rattus norvegicus, UniProt Q64346). The test is described as follows: inhibition of rat DUSP6 enzyme activity – biochemical, in vitro, primary screen (AID 425).
Sequence of Dual specificity protein phosphatase 6 (Q64346 whole entry): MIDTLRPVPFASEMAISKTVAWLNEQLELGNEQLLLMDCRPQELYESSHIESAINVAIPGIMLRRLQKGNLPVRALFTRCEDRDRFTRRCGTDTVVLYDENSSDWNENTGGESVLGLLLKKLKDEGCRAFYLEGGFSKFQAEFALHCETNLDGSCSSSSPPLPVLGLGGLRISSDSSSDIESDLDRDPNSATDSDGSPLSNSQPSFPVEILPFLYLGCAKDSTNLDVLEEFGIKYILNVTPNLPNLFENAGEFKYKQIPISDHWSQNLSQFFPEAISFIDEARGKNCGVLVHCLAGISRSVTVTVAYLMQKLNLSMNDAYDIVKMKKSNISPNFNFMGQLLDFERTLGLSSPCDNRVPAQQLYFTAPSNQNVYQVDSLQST
Test [6] concerns the target Luciferin 4-monooxygenase (Photinus pyralis, UniProt P08659). In words: inhibition of purified Photinus pyralis luciferase – biochemical, luminescence, dose response (AID 1891).
Test [7] in a line: Luminescence Cell-Based Dose Confirmation HTS to Identify Inhibitors of Platelet Dense Granule Release. [Related pubchem assays: 1663 (Primary HTS), 1678 (Summary of Project)]. It counts as functional.
Test [8] can be described thus: Fluorescence Cell-Based Dose Response to Identify Inhibitors of Thrombin Receptor-Activating Peptide SFLLRN-Mediated P-Selectin Induction on Platelets. [Related pubchem assays: 1663 (Primary HTS), 1889 (retest at dose ), 1891 (counterscreen), 1678 (Project Summary)]. It is filed as functional. (Counterscreens check selectivity or assay interference.)
Test [9] addresses Prothrombin (Homo sapiens, UniProt P00734). The test is described as follows: Thrombin 1536 HTS Dose Response Confirmation. [Related pubchem assays: 1046 (Thrombin 1536 HTS; hits were confirmed in this assay)]. It counts as functional.
Test [10] has as its target Mitogen-activated protein kinase 10 (Homo sapiens, UniProt P53779). The test is described as follows: Dose response biochemical screening assay for inhibitors of c-Jun N-Terminal Kinase 3 (JNK3). [Related pubchem assays: 746 ].
The target of test [11] is T1, SUMO-activating enzyme (Homo sapiens, UniProt Q9UBT2). In words: blockers of UBC9-mediated SUMO conjugation – biochemical, AlphaScreen, SUMOylation inhibitor project, confirmation (AID 2018). It counts as functional. (Bead proximity is the source of the signal in Alpha formats.)
T1 sequence (Q9UBE0 whole entry): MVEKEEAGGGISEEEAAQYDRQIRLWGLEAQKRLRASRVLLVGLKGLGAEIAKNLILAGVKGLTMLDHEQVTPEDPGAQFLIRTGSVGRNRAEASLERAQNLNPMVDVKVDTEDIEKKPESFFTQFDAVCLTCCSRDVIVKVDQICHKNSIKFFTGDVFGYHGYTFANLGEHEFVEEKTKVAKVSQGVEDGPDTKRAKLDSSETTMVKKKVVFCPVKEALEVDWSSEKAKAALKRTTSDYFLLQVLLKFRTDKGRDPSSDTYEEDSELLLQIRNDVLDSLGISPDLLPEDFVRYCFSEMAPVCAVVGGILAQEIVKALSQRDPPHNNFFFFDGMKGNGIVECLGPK
T1 sequence (Q9UBT2 whole entry): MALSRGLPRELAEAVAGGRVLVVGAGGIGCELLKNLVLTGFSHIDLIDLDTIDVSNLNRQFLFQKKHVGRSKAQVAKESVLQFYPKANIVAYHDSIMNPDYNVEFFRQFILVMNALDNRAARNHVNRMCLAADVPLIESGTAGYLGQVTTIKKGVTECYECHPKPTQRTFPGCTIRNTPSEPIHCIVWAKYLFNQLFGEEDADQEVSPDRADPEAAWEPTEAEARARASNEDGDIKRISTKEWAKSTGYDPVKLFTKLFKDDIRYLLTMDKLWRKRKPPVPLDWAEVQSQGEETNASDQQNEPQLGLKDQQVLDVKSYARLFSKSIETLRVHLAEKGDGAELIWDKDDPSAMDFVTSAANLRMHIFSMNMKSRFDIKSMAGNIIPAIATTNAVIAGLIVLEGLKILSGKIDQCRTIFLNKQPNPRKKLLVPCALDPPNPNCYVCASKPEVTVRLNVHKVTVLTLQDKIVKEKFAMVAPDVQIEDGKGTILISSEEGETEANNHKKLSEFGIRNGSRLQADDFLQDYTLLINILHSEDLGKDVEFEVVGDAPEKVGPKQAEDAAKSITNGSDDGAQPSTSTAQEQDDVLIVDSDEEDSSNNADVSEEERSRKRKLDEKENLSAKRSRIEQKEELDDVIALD
The target in test [12] is T2, Aminopeptidase N (Plasmodium falciparum FcB1/Columbia, UniProt O96935).
T2 sequence (O96935 whole entry): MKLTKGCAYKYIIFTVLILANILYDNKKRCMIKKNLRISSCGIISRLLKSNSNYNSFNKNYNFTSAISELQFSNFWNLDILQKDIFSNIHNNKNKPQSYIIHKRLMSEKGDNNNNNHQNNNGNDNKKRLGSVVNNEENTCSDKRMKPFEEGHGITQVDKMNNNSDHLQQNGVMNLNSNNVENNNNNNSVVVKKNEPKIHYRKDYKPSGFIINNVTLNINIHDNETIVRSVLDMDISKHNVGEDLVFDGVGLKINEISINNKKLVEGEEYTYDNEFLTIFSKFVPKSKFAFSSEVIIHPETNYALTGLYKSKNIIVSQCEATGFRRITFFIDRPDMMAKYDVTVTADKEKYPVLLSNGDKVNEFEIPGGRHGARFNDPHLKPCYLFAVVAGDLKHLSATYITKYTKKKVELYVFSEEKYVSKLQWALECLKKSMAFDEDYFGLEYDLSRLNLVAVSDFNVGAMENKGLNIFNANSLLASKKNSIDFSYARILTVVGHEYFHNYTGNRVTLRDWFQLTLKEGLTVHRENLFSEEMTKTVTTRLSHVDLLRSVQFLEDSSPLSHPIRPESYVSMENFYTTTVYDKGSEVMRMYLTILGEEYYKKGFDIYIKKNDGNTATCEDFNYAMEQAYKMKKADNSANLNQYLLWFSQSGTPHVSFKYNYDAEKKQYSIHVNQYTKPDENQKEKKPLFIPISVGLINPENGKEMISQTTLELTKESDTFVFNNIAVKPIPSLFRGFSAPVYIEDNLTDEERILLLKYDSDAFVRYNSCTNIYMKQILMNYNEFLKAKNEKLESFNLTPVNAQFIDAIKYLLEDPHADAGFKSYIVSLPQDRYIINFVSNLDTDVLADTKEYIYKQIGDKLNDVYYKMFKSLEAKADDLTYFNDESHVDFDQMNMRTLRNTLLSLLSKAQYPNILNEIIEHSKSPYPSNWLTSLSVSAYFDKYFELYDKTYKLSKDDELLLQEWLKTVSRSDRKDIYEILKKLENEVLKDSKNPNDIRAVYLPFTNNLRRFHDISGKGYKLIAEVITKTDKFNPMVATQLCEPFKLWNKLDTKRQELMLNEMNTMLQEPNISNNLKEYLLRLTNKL
The test is described as follows: malaria alanyl aminopeptidase activity blockers – biochemical, fluorogenic H-Leu-NHMec substrate, 1536-well (AID 1445). More on the design: species or system Plasmodium falciparum 3D7, 3D7.

For test [13], the target named is Heat shock protein HSP 90-alpha (Homo sapiens, UniProt P07900). The test is described as follows: Luminescence-based dose response biochemical high throughput screening assay for inhibitors of the Heat Shock Protein 90 (HSP90). [Related pubchem assays: 1831 (Summary AID.), 1846 (Confirmation screen.), 1789 (Primary screen.)].
Test [14] addresses T1, SUMO-activating enzyme. In words: blockers of SAE1/SAE2–UBC9 SUMO transfer – biochemical, HTRF, uHTS, primary screen (AID 2006). It counts as protein-complex assay.
Test [15] addresses T3, Tyrosyl-DNA phosphodiesterase 2 (Homo sapiens, UniProt O95551).
T3 sequence (O95551 whole entry): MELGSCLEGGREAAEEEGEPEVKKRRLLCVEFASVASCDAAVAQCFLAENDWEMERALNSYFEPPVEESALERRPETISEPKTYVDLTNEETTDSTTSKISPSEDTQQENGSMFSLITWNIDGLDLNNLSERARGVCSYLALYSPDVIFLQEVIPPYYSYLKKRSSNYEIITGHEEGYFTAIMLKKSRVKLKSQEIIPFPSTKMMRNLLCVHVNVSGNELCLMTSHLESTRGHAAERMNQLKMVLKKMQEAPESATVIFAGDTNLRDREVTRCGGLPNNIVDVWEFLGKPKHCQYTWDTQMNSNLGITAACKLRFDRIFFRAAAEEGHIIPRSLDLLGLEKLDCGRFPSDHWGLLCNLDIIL
The test is described as follows: potency against TDP2 phosphodiesterase activity – biochemical, epi absorbance, IC50, dose response (AID 743297).

In test [16] the target is SUMO E1/E2 (Homo sapiens, UniProt P63279+Q9UBE0+Q9UBT2). In words: SAR analysis of SUMOylation using HTRF in an in-Vitro dose response assay. [Related pubchem assays (depositor defined):AID2006, AID2011, AID2018, AID2069, AID2658]. It counts as functional. (Time-resolved FRET reads energy transfer from a long-lived donor to a nearby acceptor.)
Sequence of SUMO E1/E2 (Q9UBE0 whole entry): as the sequence (Q9UBE0 whole entry) above
Sequence of SUMO E1/E2 (Q9UBT2 whole entry): as the sequence (Q9UBT2 whole entry) above
Sequence of SUMO E1/E2 (P63279 whole entry): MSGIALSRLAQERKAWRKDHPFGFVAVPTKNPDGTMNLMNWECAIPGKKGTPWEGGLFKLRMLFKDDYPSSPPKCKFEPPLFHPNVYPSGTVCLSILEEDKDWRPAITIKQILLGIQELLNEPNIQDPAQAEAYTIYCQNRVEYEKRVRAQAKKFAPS
Test [17] can be described thus: cytotoxicity toward HT-29 cells – cell-based, CellTiter-Glo luminescence, IC50, dose response (AID 1117330). It is filed as functional.
The nature of test [18]: CellTiter-Glo luminescence survival assay, SW480 colon tumor line, concentration-response curve, half-maximal inhibitory concentration (AID 1117338). It is filed as functional.
Test [19] can be described thus: RKO cell viability reduction, dose response, CellTiter-Glo luminescence (AID 1117322). It is filed as functional.
The nature of test [20]: Reduced DLD-1 viability, concentration-response, CellTiter-Glo luminescence (AID 1117352). It counts as functional.
The nature of test [21]: rise of 2N DNA cells, HeLa – IC50, dose response (AID 1117349). It is filed as functional, cell-based.
The nature of test [22]: rise of 4N DNA cells, HeLa – IC50, dose response (AID 1117351). It counts as functional, cell-based.
For test [23], the system named is Danio rerio. In words: In Vivo Angiogenesis Dose-Response Confirmation. [Related pubchem assays: 732 (Assay preceding this confirmatory assay.)]. It is filed as functional, organism-based.
Test [24] can be described thus: SNU-C1 cell viability reduction, dose response, CellTiter-Glo luminescence (AID 1117323). It is filed as functional, cell-based.
Test [25] is described as follows: cytotoxicity toward HCT116 cells – cell-based, CellTiter-Glo luminescence, IC50, dose response (AID 1117332). As to conditions: HCT-116. It counts as functional.
Test [26] can be described thus: cytotoxicity toward Colo320 cells – cell-based, CellTiter-Glo luminescence, IC50, dose response (AID 1117334). It is filed as functional. Conditions: COLO 320.

Activity calls are given as the source filed them.

Sequence of Luciferin 4-monooxygenase (P08659 whole entry): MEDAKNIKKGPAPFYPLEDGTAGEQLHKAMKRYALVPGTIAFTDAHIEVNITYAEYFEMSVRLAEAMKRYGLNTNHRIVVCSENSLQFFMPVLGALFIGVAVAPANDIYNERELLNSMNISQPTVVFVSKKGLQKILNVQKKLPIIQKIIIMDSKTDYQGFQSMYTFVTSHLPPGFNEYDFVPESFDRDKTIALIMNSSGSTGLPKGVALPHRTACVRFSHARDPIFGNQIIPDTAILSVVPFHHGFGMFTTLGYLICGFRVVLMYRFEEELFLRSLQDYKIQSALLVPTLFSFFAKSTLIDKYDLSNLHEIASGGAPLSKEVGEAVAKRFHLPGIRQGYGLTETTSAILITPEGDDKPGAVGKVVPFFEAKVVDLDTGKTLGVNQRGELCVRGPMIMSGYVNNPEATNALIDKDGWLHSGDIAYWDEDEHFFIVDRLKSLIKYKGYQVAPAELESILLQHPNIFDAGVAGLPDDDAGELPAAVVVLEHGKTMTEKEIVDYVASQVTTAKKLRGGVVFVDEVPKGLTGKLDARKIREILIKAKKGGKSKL
Sequence of Photoreceptor-specific nuclear receptor (Q9Y5X4 whole entry): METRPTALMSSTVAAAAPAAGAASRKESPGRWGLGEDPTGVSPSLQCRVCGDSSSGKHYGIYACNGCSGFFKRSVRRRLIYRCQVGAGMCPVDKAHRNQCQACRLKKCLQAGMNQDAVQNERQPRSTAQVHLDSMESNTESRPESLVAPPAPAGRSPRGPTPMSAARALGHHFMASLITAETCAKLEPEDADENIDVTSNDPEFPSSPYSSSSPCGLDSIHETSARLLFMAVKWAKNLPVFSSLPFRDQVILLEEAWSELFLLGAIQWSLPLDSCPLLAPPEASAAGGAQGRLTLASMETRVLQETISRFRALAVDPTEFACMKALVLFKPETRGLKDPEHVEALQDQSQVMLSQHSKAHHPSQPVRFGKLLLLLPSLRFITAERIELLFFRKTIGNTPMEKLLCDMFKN
Sequence of E3 ubiquitin-protein ligase Mdm2 (Q00987 whole entry): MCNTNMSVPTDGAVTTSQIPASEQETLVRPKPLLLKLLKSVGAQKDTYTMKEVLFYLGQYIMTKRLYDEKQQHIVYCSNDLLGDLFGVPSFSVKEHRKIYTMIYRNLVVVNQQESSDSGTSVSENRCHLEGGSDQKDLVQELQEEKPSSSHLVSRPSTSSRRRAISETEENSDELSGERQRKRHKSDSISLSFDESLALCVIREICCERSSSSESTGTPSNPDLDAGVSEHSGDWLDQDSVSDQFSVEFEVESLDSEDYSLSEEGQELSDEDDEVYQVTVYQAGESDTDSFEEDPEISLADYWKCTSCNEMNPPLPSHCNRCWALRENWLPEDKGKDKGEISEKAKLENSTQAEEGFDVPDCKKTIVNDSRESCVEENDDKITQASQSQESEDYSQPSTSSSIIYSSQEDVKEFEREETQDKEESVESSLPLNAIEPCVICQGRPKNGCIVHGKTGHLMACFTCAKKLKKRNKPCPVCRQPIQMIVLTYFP
Sequence of Diphosphomevalonate decarboxylase (Q9FD53 whole entry): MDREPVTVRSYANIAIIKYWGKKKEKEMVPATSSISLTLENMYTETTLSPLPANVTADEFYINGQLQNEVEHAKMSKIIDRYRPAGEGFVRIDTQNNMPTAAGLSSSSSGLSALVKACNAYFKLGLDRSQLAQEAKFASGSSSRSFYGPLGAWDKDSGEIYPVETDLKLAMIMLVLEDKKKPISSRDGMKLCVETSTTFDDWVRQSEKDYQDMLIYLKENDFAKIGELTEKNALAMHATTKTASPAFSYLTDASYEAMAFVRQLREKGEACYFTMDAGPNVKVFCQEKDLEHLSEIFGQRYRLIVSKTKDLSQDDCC
Sequence of Mitogen-activated protein kinase 10 (P53779 whole entry): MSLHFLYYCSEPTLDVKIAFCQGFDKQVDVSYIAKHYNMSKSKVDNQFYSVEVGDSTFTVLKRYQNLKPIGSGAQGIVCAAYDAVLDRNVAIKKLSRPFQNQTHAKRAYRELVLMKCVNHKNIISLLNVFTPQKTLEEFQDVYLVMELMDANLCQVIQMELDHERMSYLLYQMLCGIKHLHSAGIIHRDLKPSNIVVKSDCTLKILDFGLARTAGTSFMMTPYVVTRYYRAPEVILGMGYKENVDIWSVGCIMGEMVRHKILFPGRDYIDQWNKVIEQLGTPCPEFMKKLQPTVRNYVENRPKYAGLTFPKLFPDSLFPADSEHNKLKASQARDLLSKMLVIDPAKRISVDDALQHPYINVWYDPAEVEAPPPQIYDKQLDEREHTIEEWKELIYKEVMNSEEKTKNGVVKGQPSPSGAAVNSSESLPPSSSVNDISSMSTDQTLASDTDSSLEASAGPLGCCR

Regarding `Cc1ccc(-n2sc3ccccc3c2=O)cc1S(=O)(=O)N1CCCC1`, the IC50 – broadly, the point on the concentration scale where inhibition reaches its midpoint – in [1] is 4.15 µM (active).
Regarding `CC(=O)Nc1cccc(Oc2nc(C(F)(F)F)nc3ccccc23)c1`, the results for the IC50 in test [2] and in test [3] were 18.7 µM (not active) and > 39.8 µM (not active), respectively.
As to `COc1ccc(-c2nc(C)c(C(C)=O)n2O)cc1`, in [4], the EC50 (commonly the midpoint of the concentration-response curve) is 12.3 µM (not active).
As for `CCN(CC)CCCN1C(=O)C(O)=C(C(=O)c2ccccc2)C1c1ccccn1` (stereo unspecified), in test [5], the IC50 was > 100 µM (not active).
For `Cc1nc(O)c(C#N)c(C)c1CSc1ncccn1`, the EC50 in [6] was > 112 µM (not active); in test [7] it was 3.68 µM (active); in test [8], < 1 µM (active).
For `Cc1ccc2c(c1)CC1(CN2C)C(=O)OC2(CCCCC2)OC1=O`, the IC50 in test [9] is 4.14 µM (active); in test [10], > 93.1 µM (not active).
In the case of `C=CCn1c(NS(=O)(=O)c2ccccc2)c(S(=O)(=O)c2ccc(C)cc2)c2nc3ccccc3nc21`, the IC50 in test [11] was 0.88 µM (active); in test [12], 36.2 µM (active); in test [13] it was 1.61 µM (active); in [14], 1.5 µM (active); in test [15], 68.1 µM (inactive); in test [16], 4.29 µM (active).
`Fc1ccc(C(OCCN2CCN(CCCc3ccccc3)CC2)c2ccc(F)cc2)cc1`: the half-inhibitory concentration (IC50) in test [17] was 1.49 µM (active); in [18], 2.07 µM (active); in test [19], 0.113 µM (active); in [20], 0.903 µM (active); in [21], > 10 µM (inactive); in [22], > 10 µM (inactive). Besides, the IC50 is 5.73 µM (not active) in [23], 1.82 µM (active) in test [24], 4.87 µM (active) in [25] and > 20 µM (inactive) in [26].
